According to US10752587B2, “Homobispiperidinyl derivatives as liver X receptor beta agonists, compositions and their use” (Merck Sharp & Dohme Corp., priority 2015, dated 2020):
Read-outs that look alike come from different tables or passages of the source.

Legend:
[1] = target: T1, glutathione-S-transferase (GST) tagged LXRbeta LBD (ligand binding domain) (Homo sapiens, UniProt P55055); test: LanthaScreen TR-FRET Liver X Receptor Coactivator Assay, co-activator recruitment to LXRbeta LBD; type: biochemical
T1 construct: purchased Invitrogen pv4658.pps
T1 sequence (P55055 222-460 limits assumed): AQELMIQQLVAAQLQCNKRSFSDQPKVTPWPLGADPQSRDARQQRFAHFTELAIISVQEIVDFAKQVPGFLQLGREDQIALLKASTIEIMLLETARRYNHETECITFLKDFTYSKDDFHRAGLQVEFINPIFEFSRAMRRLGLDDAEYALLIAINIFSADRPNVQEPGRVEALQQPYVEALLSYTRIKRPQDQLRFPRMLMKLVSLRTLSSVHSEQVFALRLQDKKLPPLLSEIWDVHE
Procedure, shortened: (§1)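 TR-FRET coactivator recruitment; compound + LBD, then fluorescein-coactivator peptide/Tb-anti-GST Ab mix; RT incubation; IP and Emax vs T0901317.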

[2] = target: T2, glutathione-S-transferase (GST) tagged LXRalpha LBD (ligand binding domain) (Homo sapiens, UniProt Q13133); test: LanthaScreen TR-FRET Liver X Receptor Coactivator Assay, co-activator recruitment to LXRalpha LBD; type: biochemical
T2 construct: purchased Invitrogen pv4655
T2 sequence (Q13133 209-447 limits assumed): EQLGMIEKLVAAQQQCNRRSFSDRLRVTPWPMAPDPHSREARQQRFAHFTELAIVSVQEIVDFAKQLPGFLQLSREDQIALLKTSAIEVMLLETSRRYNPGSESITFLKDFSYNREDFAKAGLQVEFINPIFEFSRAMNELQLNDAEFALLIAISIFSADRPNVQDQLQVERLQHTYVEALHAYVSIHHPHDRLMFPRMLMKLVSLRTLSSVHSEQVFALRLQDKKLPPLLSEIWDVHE
Procedure, shortened: as §1

[3] = LXR beta IP (nM), potency (Inflection Point, IP), co-activator recruitment to LXRbeta LBD, in relation to T0901317
[4] = read-out: LXR beta Activity @ max dose (%)
[5] = potency (Inflection Point, IP), co-activator recruitment to LXRalpha LBD, in relation to T0901317
[6] = read-out: LXR alpha Activity @ max dose (%)
[7] = efficacy at max dose, in relation to reference dual agonist T0901317
[8] = efficacy at max dose, in relation to reference dual agonist T0901317, read-out: LXR beta Activity @ max dose (%)
[9] = potency (Inflection Point, IP), co-activator recruitment to LXRbeta LBD, in relation to T0901317, read-out: LXR beta IP
[10] = efficacy at max dose, in relation to reference dual agonist T0901317, read-out: LXR alpha Activity @ max dose (%)
[11] = potency (Inflection Point, IP), co-activator recruitment to LXRalpha LBD, in relation to T0901317, read-out: LXR alpha IP

SMILES	LXR alpha IP (nM) [2, 5]	Emax [1, 8] [%]	EC50 [1, 9] [nM]	Emax [2, 10] [%]	EC50 [2, 11] [nM]	also measured
CN(C)C(=O)c1ccc(N2CCC(CC3CCN(C(=O)C(O)(c4ccccc4)C4CCCCC4)CC3)CC2)nc1Cl (centres unmarked) [Example 7-100, 2-chloro-6-[4-({1-[cyclohexyl(hydroxy)phenylacetyl]piperidin-4-yl}methyl)piperidin-1-yl]-N,N-dimethylpyridine-3-carboxamide]	NO IP	–	–	–	–	EC50 [1, 3]: 200 nM; Emax [1, 4]: 37%; Emax [2, 6]: 4%
CN(C)C(=O)c1ccc(N2CCC(CC3CCN(C(=O)[C@](O)(c4ccccc4)C(F)(F)F)CC3)CC2)cc1Cl [Example 2-43, 2-chloro-N,N-dimethyl-4-[4-({1-[(2R)-3,3,3-trifluoro-2-hydroxy-2-phenyl-propanoyl]piperidin-4-yl}methyl)piperidin-1-yl]benzamide]	–	–	–	–	–	LXR beta Activity @ max dose (%) [1, 7]: 75%; LXR alpha Activity @ max dose (%) [2, 7]: 16%
COc1cccc([C@@](O)(C(=O)N2CCC(C(=O)N3CCN(c4ccc(C(=O)N(C)C)c(Cl)c4)CC3)CC2)C(F)(F)F)c1 [Example 5-1, (R)-2-chloro-N,N-dimethyl-4-(4-(1-(3,3,3-trifluoro-2-hydroxy-2-(3-methoxyphenyl)propanoyl)piperidine-4-carbonyl)piperazin-1-yl)benzamide]	NO IP	–	–	–	–	EC50 [1, 3]: 12400 nM; Emax [1, 4]: 31%; Emax [2, 6]: 5%
COc1cc(F)cc([C@@](O)(C(=O)N2CCC(C)(CC3CCN(c4ccc(C(=O)N(C)C)c(Cl)c4)CC3)CC2)C(F)(F)F)c1 [Example 2-49, 2-chloro-N,N-dimethyl-4-[4-({4-methyl-1-[(2R)-3,3,3-trifluoro-2-(3-fluoro-5-methoxyphenyl)-2-hydroxy-propanoyl]piperidin-4-yl}methyl)piperidin-1-yl]benzamide]	NO IP	59	6	5	–	–
CCc1cccc([C@@](O)(C(=O)N2CC(CC3CCN(c4ccc(C(=O)N(C)C)c(Cl)c4)CC3)C2)C(F)(F)F)c1 [Example 2-64, 2-chloro-4-[4-({1-[(2R)-2-(3-ethyl-phenyl)-3,3,3-trifluoro-2-hydroxy-propanoyl]azetidin-3-yl}methyl)piperidin-1-yl]-N,N-dimethyl-benzamide]	–	75	30	18	1070	–
CC(C)(C(=O)N1CCC(CC2CCN(c3cccc(S(C)(=O)=O)c3)CC2)CC1)c1ccccc1 [Example 2-73, 1-(2-methyl-2-phenylpropanoyl)-4-({1-[3-(methylsulfonyl)phenyl]piperidin-4-yl}methyl)piperidine]	–	77	223	35	5370	–
COc1cccc(S(=O)(=O)N2CC(CC3CCN(c4ccc(C(=O)N(C)C)c(Cl)n4)CC3)C2)c1 [Example 14-2, 2-chloro-6-[4-({1-[(3-methoxyphenyl)-sulfonyl]azetidin-3-yl}methyl)piperidin-1-yl}-N,N-dimethyl-pyridine-3-carboxamide]	–	–	–	–	–	EC50 ([1]; co-activator recruitment to GST-LXRbeta LBD, TR-FRET, read-out: LXR beta IP (Inflection Point, potency)): 50 nM; Emax ([1]; efficacy in relation to reference dual agonist T0901317, read-out: LXR beta Activity @ max dose): 93%; EC50 ([2]; co-activator recruitment to GST-LXRalpha LBD, TR-FRET, read-out: LXR alpha IP (Inflection Point, potency)): 10300 nM; Emax ([2]; efficacy in relation to reference dual agonist T0901317, read-out: LXR alpha Activity @ max dose): 45%
CN(C)C(=O)c1ccc(N2CCC(OC3CCN(C(=O)C(O)(c4ccc(Cl)cc4)C(F)(F)F)CC3)CC2)cc1Cl (centres unmarked) [Example 2-23, 2-chloro-4-[4-({1-[2-(4-chlorophenyl)-3,3,3-trifluoro-2-hydroxy-propanoyl]piperidin-4-yl}oxy)piperidin-1-yl]-N,N-dimethyl-benzamide]	NO IP	51	513	0	–	–
CN(C)C(=O)c1ccc(N2CCCN(CC3CCN(C(=O)C(O)(c4cccc(Cl)c4)C(F)(F)F)CC3)CC2)cc1Cl (centres unmarked) [Example 6-2, 2-chloro-4-[4-({1-[2-(3-chlorophenyl)-3,3,3-trifluoro-2-hydroxypropanoyl]piperidin-4-yl}methyl)-1,4-diazepan-1-yl]-N,N-dimethylbenzamide]	NO IP	98	533	14	–	–
COc1cccc([C@@](O)(C(=O)N2CCC(CC3CCN(c4ccc(C(=O)N(C)C)c(C)n4)CC3)CC2)C(F)(F)F)c1 [Example 7-5, N,N,2-trimethyl-6-[4-({1-[(2R)-3,3,3-trifluoro-2-hydroxy-2-(3-methoxyphenyl)propanoyl]piperidin-4-yl}methyl)piperidin-1-yl]pyridine-3-carboxamide]	NO IP	69	25	8	–	–

Second part, led by results:

LXR alpha IP (nM) [2, 5]	Emax [1, 8] [%]	EC50 [1, 9] [nM]	Emax [2, 10] [%]	EC50 [2, 11] [nM]	SMILES	also measured
–	79	5	20	49	COc1cc(F)cc([C@@](O)(C(=O)N2CCC(CC3CCN(c4ccc(C(N)=O)c(Cl)c4)CC3)CC2)C(F)(F)F)c1 [Example 12-3, 2-chloro-4-[4-({1-[(2R)-3,3,3-trifluoro-2-(3-fluoro-5-methoxy-phenyl)-2-hydroxy-propanoyl]piperidin-4-yl}methyl)-piperidin-1-yl]-benzamide]	–
NO IP	51	6	8	–	CCOc1cccc([C@@](O)(C(=O)N2CCC(CC3CCN(c4ccc(C(=O)N(C)C)c(Cl)n4)CC3)CC2)C(F)(F)F)c1 [Example 7-92, 2-chloro-6-[4-({1-[(2R)-2-(3-ethoxyphenyl)-3,3,3-trifluoro-2-hydroxypropanoyl]piperidin-4-yl}methyl)piperidin-1-yl]-N,N-dimethylpyridine-3-carboxamide]	–
–	73	4	0	109	CN(C)C(=O)c1ccc(N2CCC(CC3CCN(C(=O)[C@](O)(c4cccc(Br)c4)C(F)(F)F)CC3)CC2)nc1Cl [Example 7-67, 6-[4-({1-[(2R)-2-(3-bromophenyl)-3,3,3-trifluoro-2-hydroxypropanoyl]piperidin-4-yl}methyl)piperidin-1-yl]-2-chloro-N,N-dimethylpyridine-3-carboxamide]	–
NO IP	60	22	12	–	CCc1cccc([C@@](O)(C(=O)N2CCC(CC3CCN(c4ccc(C(=O)NC)c(Cl)c4)CC3)CC2)C(F)(F)F)c1 [Example 7-120, 2-chloro-4-[4-({1-[(2R)-2-(3-ethylphenyl)-3,3,3-trifluoro-2-hydroxypropanoyl]piperidin-4-yl}methyl)piperidin-1-yl]-N-methylbenzamide]	–
NO IP	55	6	–	–	CN(C)C(=O)c1ccc(N2CCC(CC3CCN(C(=O)[C@](O)(c4cc(Cl)cc(Cl)c4)C(F)(F)F)CC3)CC2)nc1Cl [Example 7-93, 2-chloro-6-[4-({1-[(2R)-2-(3,5-dichlorophenyl)-3,3,3-trifluoro-2-hydroxypropanoyl]piperidin-4-yl}methyl)piperidin-1-yl]-N,N-dimethylpyridine-3-carboxamide]	LXR alpha Activity @ max dose (%) [2, 7]: 1%
–	65	12	24	120	CCc1cccc([C@@](O)(C(=O)N2CCC(CC3CCN(c4ccc(C(=O)NC)c(Cl)n4)CC3)CC2)C(F)(F)F)c1 [Example 7-148, 2-chloro-6-[4-({1-[(2R)-2-(3-ethylphenyl)-3,3,3-trifluoro-2-hydroxypropanoyl]piperidin-4-yl}methyl)piperidin-1-yl]-N-methylpyridine-3-carboxamide]	–
